# “Also recorded” adds a separate entry of the source.
# Experiments:
# [1] = system: U-87 xenograft tumors; experiment: In vivo and ex vivo NIR fluorescence imaging of U-87 xenograft tumor-bearing mice; conditions: co-administered with 10 nmol bivalent-IA-Cy5.5; 2, 4, 7, 24, 48 hrs
# Procedure: U-87 MG Xenograft Model, Animal procedures were performed according to approved protocols. Female athymic nude mice (nu/nu), obtained from Charles River Laboratories, Inc. (Cambridge, Mass., USA) at 4-6 weeks of age, were injected subcutaneously in the right rear thigh with 1×10^7 U-87 MG cells suspended in 100 μL of phosphate-buffered saline (PBS). The cancer cells were harvested from sub-confluent cultures with 0.25% trypsin. Trypsinization was stopped with DMEM containing 10% FBS, after which the cells were washed once in serum-free medium and resuspended in PBS. Trypan blue exclusion was performed to ensure >90% cell viability. The tumor bearing mice were subjected to in vivo imaging studies when the tumors reached 0.4-0.6 cm in diameter.
# In vivo Fluorescence Imaging of Tumors. ˜3×10^6 U-87 cells were implanted bilaterally in the posterior flanks of immunocompromised (nu/nu) mice and grown to ˜4 to 6 mm in diameter. Imaging was carried out in groups of five mice. After palpable masses were detected, animals were manually restrained and imaging probes were intravenously administered (lateral tail vein) using a 30-Ga needle via aseptic technique. Free Cy5.5 was prepared by dissolving the same Cy5.5NHS ester used for labeling the bivalent IA (GE Healthcare, Piscatway, N.J., USA) in phosphate buffered saline (PBS), pH 7.4 overnight at 4° C. Stock concentration of free Cy5.5 was measured optically using the molar extinction coefficient of 250000M-1 cm-1 using a UV-visible spectrophotometer at the maximum absorbance wavelength (675 nm) as recommended by the manufacturer. The bivalent-IA-Cy5.5 was weighed and confirmed by spectrophotometric measurement. Appropriate dilutions of each probe were made in PBS, pH 7.4, and each was filter sterilized (0.2-μm) immediately prior to use. All animals weighed between 18 and 20 g, and each received 10 nmol of imaging probe (in a total volume of 100 μL). Fluorescence imaging was performed with a small animal-dedicated optical imaging system (Xenogen/Caliper IVIS-200, Mountain View, Calif., USA) under continuous 1.5-2.0% isoflurane delivered through the integrated anesthesia nosecone system. At 2-, 4-, 7-, 24-, and 48-hrs' post-injection, images were acquired with the surface of the tissue of interest (tumor) approximating a perpendicular viewing angle relative to the camera line of sight; this viewing angle was also used for normal tissue selection.
# For determining tumor contrast, mean fluorescence intensities of the tumor area (T) defined as radiance (photons/sec/cm2/sr) at the right rear leg of the animal and of the area (N) at the right flank (normal tissue) were calculated by region-of-interest (ROI) analysis using the corresponding photograph of each image acquisition dataset to identify the tumor region. Pre-injection imaging was also performed to determine baseline autofluorescence. For competitive inhibition studies, mice (n=3) were co-injected with 500 nmol bivalent IA and 10 nmol of imaging probe (bivalent-IA-Cy5.5) following the same procedure described above. Free Cy5.5 studies were performed in the same manner following the intravenous injection of 10 nmol. For ex vivo biodistribution imaging, two tumor-bearing mice were imaged 24 hrs post injection of bivalent-IA-Cy5.5 and thereafter euthanized per IACUC protocol (CO2 and cervical dislocation). Tumor and major internal organs (heart, lung, liver, spleen, gastrointestinal tract, and kidneys) were harvested, weighed, and imaged against a black paper background. All image acquisition parameters were as follows: epi-illumination; Cy5.5 Em/Ex; Bin: (HR)4, FOV: 12.9; f2; 0.2 sec.
# [2] = system: U-87 MG (ATCC HTB-14) glioblastoma cells over-expressing integrin αvβ3; experiment: Fluorescence microscopy probe binding assay in U-87 cells; type: cell-based, human; conditions: blocking dose 20 μmol/L
# Procedure: Fluorescence Microscopy Studies. […] For fluorescence microscopy studies, 1×10^4 U-87 cells were cultured on 35 mm MatTek glass bottom culture dishes. After 24 hr, cells were washed with PBS and then incubated with bivalent-IA-Cy5.5 (200 nM) at 37° C. for 45 min. Integrin specificity of the probe binding was verified by incubating U-87 cells with and without a blocking dose of the non-fluorescent bivalent IA (20 μmol/L). After the incubation period, the cells were washed three times with ice-cold PBS. The fluorescence signal of the cells was recorded using FluoView® 1000 Laser Scanning Confocal Microscope (Olympus, Center Valley, Pa., USA) under a 40× oil-immersion objective, with laser excitation at 675 nm (Cy5.5). A differential interference contrast image was also recorded so that the origin of fluorescent signals could be confirmed.
smiles,measurement,setting,value
NC(CCCCCC(=O)NCCS(=O)(=O)N[C@@H](CNC(=O)c1ccc(OCCNC2=NCCCN2)cc1)C(=O)O)C(=O)NCCS(=O)(=O)N[C@@H](CNC(=O)c1ccc(OCCNC2=NCCCN2)cc1)C(=O)O (some centres unmarked) [bivalent IA],competitive inhibition of bivalent-IA-Cy5.5 tumor fluorescence signal,[1],Significant blocking of tumor fluorescence signal; also recorded: reduced at all timepoints measured
same,blocking of bivalent-IA-Cy5.5 binding/endocytosis in U-87 cells,[2],complete blockage of endocytosis of the imaging probes; also recorded: effectively blocked

# Reference: patent publication US9833520B2, “Labeled, non-peptidic, multivalent integrin antagonist compounds; methods for synthesis and uses thereof” (The Methodist Hospital Research Institute, priority 2011, dated 2017)
